Results on 6 compounds are retold here after patent publication US20250179047A1, “5-[7-(3,4-DIHYDRO-1H-ISOQUINOLINE-2-CARBONYL)-1,2,3,4 TETRAHYDROISOQUINOLIN-6-YL]-1H-PYRROLE-3-CARBOXAMIDE DERIVATIVES, PHARMACEUTICAL COMPOSITIONS CONTAINING THEM AND THEIR USES AS PRO-APOPTOTIC AGENTS” (LES LABORATOIRES SERVIER, priority 2022, published 2025).

Structures are written as SMILES. pKi: −log10 of the molar value. Like-named read-outs stand apart in the source and are kept apart here.

The subject of assay [1] is KMS-12-PE Bcl-2 WT. The assay can be described thus: In vitro cytotoxicity CellTiter-Glo 48 h, KMS-12-PE Bcl-2 WT. Format: cell-based. The conditions noted are these: Homo sapiens, KMS-12-PE, C50 = concentration needed to reach 50% of the cellular viability. An outline of the steps:
(§1)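 CTG luminescence read-out; C50 = concentration reaching 50% cellular viability. Cells: KMS-12-PE expressing Bcl-2 WT or G101V (lentiviral, TagRFP-sorted). 11-pt curve, 48 h, 37 °C/5% CO2.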
In general terms: ATP-based viability assays read luminescence as a measure of living cells.

Assay [2] deals with KMS-12-PE Bcl-2 G101V. The assay can be described thus: In vitro cytotoxicity CellTiter-Glo 48 h, KMS-12-PE Bcl-2 G101V. The format is cell-based. The conditions noted are these: for Ratio (G101V/WT): C50 KMS-12-PE Bcl-2 G101V over C50 KMS-12-PE Bcl-2 WT; for IC50: Homo sapiens, KMS-12-PE, 48 h, CellTiter-Glo, C50 = concentration needed to reach 50% of the cellular viability. An outline of the steps:
as §1

Assay [3] deals with BCL2 G101V (Homo sapiens, UniProt P10415, G101V). The assay can be described thus: TR-FRET competitive binding assay, BCL2 G101V. The conditions noted are these: BCL2 G101V; Ki determined from IC50; read-out: TR_FRET EKI_Bcl2 G101V. An outline of the steps: (§2)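 Terbium-labelled N-terminal Halo-fusion BCL2 or BCLXL (E. coli), 0.5 nM, competed against fluorescein-labelled PUMA peptide (2 or 20 nM) for 2 h at 23° C in 50 mM Hepes pH 7.5, 150 mM NaCl, 5% DMSO. TR-FRET 520/495 nm ratio gave IC50 by four-parameter fit; Ki derived from IC50.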

Assay [4] concerns BCL2 G101V. The assay can be described thus: TR-FRET competitive binding assay, BCL2 G101V. On the set-up: species or system human. The conditions noted are these: for TR_FRET EKI G101V/WT selectivty ratio: ratio Ki BCL2 G101V / Ki BCL2 WT; for TR_FRET EKI G101V/WT selectivty: ratio of Ki BCL2 G101V to BCL2 WT. The method, boiled down: as §2
For assay [5], the target named is BCL2 WT (Homo sapiens (Human), UniProt P10415). The assay can be described thus: TR-FRET competitive binding assay, BCL2 WT. The method, boiled down:
as §2

For assay [6], the target named is BCLXL WT (Homo sapiens (Human), UniProt Q07817). The assay can be described thus: TR-FRET competitive binding assay, BCLXL WT. Particulars: for pKi: BCLXL WT, Ki determined from IC50, read-out: TR_FRET EKI BclxL; for TR_FRET EKI BCLxL/WT selectivty ratio: ratio Ki BCLxL / Ki BCL2 WT; for TR_FRET EKI BCLxL/WT selectivty: ratio of Ki BCLxL to BCL2 WT. The method, boiled down:
as §2
A general note: Time-resolved FRET reads energy transfer from a long-lived donor to a nearby acceptor.

Assay [7] has as its target BCL2 D103Y (Homo sapiens, UniProt P10415, D103Y). The assay can be described thus: TR-FRET competitive binding assay, BCL2 D103Y. Particulars: Ki determined from IC50, read-out: TR_FRET EKI_Bcl2 D103Y. The method, boiled down: as §2
Where [8] appears, read: Ki determined from IC50, read-out: TR_FRET EKI_Bcl2 WT.
Setting [9] is: Ki determined from IC50, read-out: TR_FRET EKI_Bcl2.

The term IC50 denotes the concentration needed to halve the response being measured. Higher therefore signals a need for much substance.

Sequence of BCLXL WT (Q07817 other isoform, or with tags, fused parts or gaps): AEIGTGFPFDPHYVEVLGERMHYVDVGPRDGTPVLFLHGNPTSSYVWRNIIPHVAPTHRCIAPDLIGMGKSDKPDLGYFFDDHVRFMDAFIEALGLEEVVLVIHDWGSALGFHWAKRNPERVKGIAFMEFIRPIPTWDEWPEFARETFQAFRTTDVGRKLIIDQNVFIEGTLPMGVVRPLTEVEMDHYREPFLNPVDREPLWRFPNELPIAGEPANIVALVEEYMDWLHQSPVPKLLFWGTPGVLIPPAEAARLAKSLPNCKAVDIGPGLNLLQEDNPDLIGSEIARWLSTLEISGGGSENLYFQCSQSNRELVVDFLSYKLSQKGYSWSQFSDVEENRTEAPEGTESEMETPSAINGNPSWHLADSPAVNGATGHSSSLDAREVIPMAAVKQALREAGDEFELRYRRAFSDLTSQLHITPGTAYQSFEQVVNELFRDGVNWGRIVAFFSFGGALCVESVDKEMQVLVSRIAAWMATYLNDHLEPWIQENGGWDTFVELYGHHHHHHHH

Consider `COC[C@@H]1Cc2ccccc2CN1C(=O)c1cc2c(cc1-c1cc(C(=O)N(c3ccc(O)cc3)c3cc(C#N)n(C(F)F)c3C)c(C)n1C)CCN(C(=O)Cc1ccc(OCCN3CCOCC3)cc1)C2` [Example 172, N-[5-cyano-1-(difluoromethyl)-2-methyl-pyrrol-3-yl]-N-(4-hydroxyphenyl)-5-[7-[(3S)-3-(methoxymethyl)-3,4-dihydro-1H-isoquinoline-2-carbonyl]-2-[2-[4-(2-morpholinoethoxy)phenyl]acetyl]-3,4-dihydro-1H-isoquinolin-6-yl]-1,2-dimethyl-pyrrole-3-carboxamide], for which the IC50 worked out at 0.0061 µM in assay [1] and 0.0284 µM in assay [2]. In addition, the “Ratio (G101V/WT)” value in assay [2] is 4.6557. The pKi in assay [3] was 9.30; in assay [5] (setting [8]) it was 9.96; in assay [6], 8.49; in assay [7] it was 9.41. The “TR_FRET EKI G101V/WT selectivty ratio” value in assay [4] is listed as 4.4. Moreover, the “TR_FRET EKI BCLxL/WT selectivty ratio” value in assay [6] stood at 29.1.
As to `Cc1c(N(C(=O)c2cc(-c3cc4c(cc3C(=O)N3Cc5ccccc5C[C@H]3CN3CCC5(CC5)C3)CN(C(=O)Cc3ccc(OCCN5CCOCC5)cc3F)CC4)n(C)c2C)c2ccc(O)cc2)cc(C#N)n1C` [Example 176, 5-[7-[(3S)-3-(5-azaspiro[2.4]heptan-5-ylmethyl)-3,4-dihydro-1H-isoquinoline-2-carbonyl]-2-[2-[2-fluoro-4-(2-morpholinoethoxy)phenyl]acetyl]-3,4-dihydro-1H-isoquinolin-6-yl]-N-(5-cyano-1,2-dimethyl-pyrrol-3-yl)-N-(4-hydroxyphenyl)-1,2-dimethyl-pyrrole-3-carboxamide], the IC50 stood at 0.0093 µM in assay [1] and 0.0596 µM in assay [2]. Also, in assay [2], the “Ratio (G101V/WT)” value is 6.4155. For the same compound, the pKi in assay [3] is 9.70; in assay [5] (setting [8]), 10.52; in assay [6] it was 8.64; in assay [7], 9.80. The “TR_FRET EKI G101V/WT selectivty ratio” value in assay [4] is reported as 5.8. Moreover, in assay [6], the “TR_FRET EKI BCLxL/WT selectivty ratio” value was 74.2.
With `Cc1ncc(N(C(=O)c2cc(-c3cc4c(cc3C(=O)N3Cc5ccccc5C[C@H]3CN3CCCCC3)CN(C(=O)Cc3ccc(OCCN5CCOCC5)cc3F)CC4)n(C)c2C)c2ccc(O)cc2)cc1C#N` [Example 177, N-(5-cyano-6-methyl-3-pyridyl)-5-[2-[2-[2-fluoro-4-(2-morpholinoethoxy)phenyl]acetyl]-7-[(3S)-3-(1-piperidylmethyl)-3,4-dihydro-1H-isoquinoline-2-carbonyl]-3,4-dihydro-1H-isoquinolin-6-yl]-N-(4-hydroxyphenyl)-1,2-dimethyl-pyrrole-3-carboxamide], the IC50 in assay [1] stood at 0.0052 µM; in assay [2], 0.0581 µM. Further, the “Ratio (G101V/WT)” value in assay [2] is listed as 11.238. Besides, the pKi in assay [3] is 9.30; in assay [5] (setting [8]) it was 10.30; in assay [6] it was 7.91; in assay [7], 9.92. In addition, the “TR_FRET EKI G101V/WT selectivty ratio” value in assay [4] was 10.0. Besides, in assay [6], the “TR_FRET EKI BCLxL/WT selectivty ratio” value is recorded as 229.0.
For the compound `COc1ccc(N(C(=O)c2cc(-c3cc4c(cc3C(=O)N3Cc5ccccc5C[C@H]3CN(C)C(C)C)CN(C(=O)Cc3ccc(OCCN5CCOCC5)cc3F)CC4)n(C)c2C)c2ccc(O)cc2)cc1C#N` [Example 179, N-(3-cyano-4-methoxy-phenyl)-5-[2-[2-[2-fluoro-4-(2-morpholinoethoxy)phenyl]acetyl]-7-[(3S)-3-[[isopropyl(methyl)amino]methyl]-3,4-dihydro-1H-isoquinoline-2-carbonyl]-3,4-dihydro-1H-isoquinolin-6-yl]-N-(4-hydroxyphenyl)-1,2-dimethyl-pyrrole-3-carboxamide], the values for the IC50 in assay [1] and in assay [2] were 0.0117 µM and 0.113 µM, respectively. In addition, in assay [2], the “Ratio (G101V/WT)” value stood at 9.658. Moreover, the pKi in assay [3] is 9.22; in assay [5] (setting [8]) it was 10.40; in assay [6] it was 8.21; in assay [7], 9.89. The “TR_FRET EKI G101V/WT selectivty ratio” value in assay [4] is 14.7. In assay [6], the “TR_FRET EKI BCLxL/WT selectivty ratio” value is listed as 148.0.
Consider `Cc1c(N(C(=O)c2cc(-c3cc4c(cc3C(=O)N3Cc5ccccc5C[C@H]3CN)CN(C(=O)Cc3ccc(OCCN5CCOCC5)cc3F)CC4)n(C)c2C)c2ccc(O)cc2)cc(C#N)n1C` [Example 230], for which the results for the IC50 in assay [1] and in assay [2] were 0.351 µM and 0.964 µM, respectively. For the same compound, in assay [2], the “Ratio (G101V/WT)” value stood at 2.7. Besides, the pKi in assay [3] is 10.17; in assay [5] (setting [9]), 10.85; in assay [6], 9.05; in assay [7], 10.18. Besides, in assay [4], the “TR_FRET EKI G101V/WT selectivty” value stood at 4.8. Further, the “TR_FRET EKI BCLxL/WT selectivty” value in assay [6] came out at 64.3.
Take `Cc1c(N(C(=O)c2cc(-c3cc4c(cc3C(=O)N3Cc5ccccc5C[C@H]3C)CN(C(=O)Cc3ccc(OCCNCCF)cc3)CC4)n(C)c2C)c2ccc(O)cc2)cc(C#N)n1C` [Example 235]: the IC50 in assay [1] turned out to be 0.0208 µM; in assay [2], 0.0968 µM. Besides, in assay [2], the “Ratio (G101V/WT)” value came to 4.7. Also, the pKi in assay [3] is 9.89; in assay [5] (setting [9]), 10.51; in assay [6], 9.05; in assay [7], 9.96. For the same compound, the “TR_FRET EKI G101V/WT selectivty” value in assay [4] is recorded as 4.2. In addition, in assay [6], the “TR_FRET EKI BCLxL/WT selectivty” value was determined as 28.7.
